Data reported in patent US8401609B2, “System, method and applications involving identification of biological circuits such as neurological characteristics” (The Board of Trustees of the Leland Stanford Junior …, priority 2007, dated 2013).
“Also recorded” adds a separate entry of the source. Read-outs that look alike come from different tables or passages of the source.

Tests used:
[1] = tested on: acute horizontal slices prepared from the ventral hippocampus; experiment: Pharmacological dissection of the VSDI signal in acute hippocampal slices; assay type: cell-based, rats
Procedure: GABAzine (20 μM) and TTX (1 μM) were applied subsequently to confirm signal extinction.
VSDI with a digital camera system optimized for high speed, sensitivity, and resolution was used to observe the activity of intact networks within acute horizontal slices prepared from the ventral hippocampus of adult, female rats (FIG. 1A). Slices were bath loaded with the fast-response voltage-sensitive dye di-4-ANEPPS. After loading, slices were stimulated with standardized electrical pulse trains and activity was recorded with a 5 ms frame rate and 25 um spatial resolution. […] To extract reliable quantitative features of the network response from the high-speed VSDI data, cross-correlation analysis was employed to take advantage of the fact that the evoked responses occur with a uniform fast time course and delay following stimulation and that reverberatory oscillations or changes in response phase were never observed under these conditions (FIGS. 1C, 1D, 10 and 11). […] The area of this region of interest and the mean amplitude of pixels in the region were then computed, and local network response (“total activity”) was calculated as the mean signal amplitude multiplied by the area of the region of interest. This measure was linear with the applied stimulus current, making it a quantitative and reliable indicator of network activity across animals (FIG. 2B).

[2] = tested on: Dcx+ cells; experiment: Doublecortin (Dcx) staining of immature neurons; assay type: in vivo, rats; conditions: NNS protocol, at time of physiological analysis
Procedure: (§1) To quantify effects of the NNS antidepressant treatment on the number of newborn cells and to confirm the selective reduction of hippocampal neurogenesis by irradiation, BrdU was injected during the week of drug treatment and conducted stereological counts as described above. […] Additionally, to assess the neurogenic environment at the time of physiological analysis, the immature neuronal marker doublecortin (Dcx) was employed.

[3] = tested on: activity of the DG relative to CA1; experiment: VSDI DG-CA1 relative activity, per slice, averaged per animal; assay type: in vivo, rats; conditions: for DG-CA1 relative activity: NNS protocol
Text: (§2) To determine the network activity changes associated with these induced depression-related behavioral phenotypes, acute hippocampal slices were generated from the same animals for high-speed VSDI. Both the DG and CA1 networks were specifically probed for the reasons described above, anticipating that there would likely be different effects in each local network that might nonetheless each be linked to the behavioral phenotype. […] In these and all experiments, the experimenters were always blinded to treatment groups. […] The activity of the DG relative to that of CA1 has consistently provided a reliable predictor of depression-related behavioral phenotypes (FIG. 2E) that was robust to experimental variation and allowed for quantitative comparisons between individual animals.
(§3) After extracting the region of interest, the mean correlation amplitude of pixels within this region and the total area of the region of interest (as a percentage of frame size) were then calculated. The mean amplitude multiplied by this area (“total activity”) was the final statistic used to measure system response for the voltage sensitive dye imaging data. Even though voltage changes due to glia can be observed with voltage sensitive dyes, the total activity measures reported here likely indicate only neuronal responses to stimulation, as opposed to the slower responses of hippocampal glia that are not appreciably sensitive to AMPA and NMDA block especially given the short latency to peak of the VSDI traces (6.3+/−0.6 ms for 2 Hz stimulations), the lack of summation of responses following 2 Hz stimulation, and the reliance of the signal on AMPA and NMDA transmission (FIG. 1B).

[4] = tested on: CA1; experiment: VSDI of evoked CA1 activity in acute hippocampal slices from treated animals; assay type: in vivo, rats; conditions: for evoked CA1 activity: 2-week dosing, normalized by control mean; for CA1 VSDI response: NNS protocol
Procedure: (§4) VSDI with a digital camera system optimized for high speed, sensitivity, and resolution was used to observe the activity of intact networks within acute horizontal slices prepared from the ventral hippocampus of adult, female rats (FIG. 1A). Slices were bath loaded with the fast-response voltage-sensitive dye di-4-ANEPPS. After loading, slices were stimulated with standardized electrical pulse trains and activity was recorded with a 5 ms frame rate and 25 um spatial resolution. […] To extract reliable quantitative features of the network response from the high-speed VSDI data, cross-correlation analysis was employed to take advantage of the fact that the evoked responses occur with a uniform fast time course and delay following stimulation and that reverberatory oscillations or changes in response phase were never observed under these conditions (FIGS. 1C, 1D, 10 and 11). This cross-correlation analysis generated two plots, one corresponding to the maximal response amplitude of each pixel (FIG. 1D, top right, FIG. 11B, right), and the other corresponding to the time at which this maximal amplitude occurred (“phase,” FIG. 1D, top left, FIG. 11B, left). Phase values were consistent in the regions responding to stimulation, which were isolated computationally for further analysis (FIG. 1D, bottom, FIG. 12). The area of this region of interest and the mean amplitude of pixels in the region were then computed, and local network response (“total activity”) was calculated as the mean signal amplitude multiplied by the area of the region of interest. This measure was linear with the applied stimulus current, making it a quantitative and reliable indicator of network activity across animals (FIG. 2B).
To determine the network activity changes associated with these induced depression-related behavioral phenotypes, acute hippocampal slices were generated from the same animals for high-speed VSDI. […] The activity of the DG relative to that of CA1 has consistently provided a reliable predictor of depression-related behavioral phenotypes (FIG. 2E) that was robust to experimental variation and allowed for quantitative comparisons between individual animals.
The following algorithms provide an example implementation for use in analyzing the VSDI data collected according to the methods and systems described herein. […] The data was represented as an initial reference frame (F), followed by each imaging data frame, which contained differential fluorescence values (ΔF). For each pixel and frame, the ΔF/F value was calculated. […]
After extracting the region of interest, the mean correlation amplitude of pixels within this region and the total area of the region of interest (as a percentage of frame size) were then calculated. […]

[5] = tested on: adult, female rats
[6] = tested on: BrdU+ cells in the hippocampus; experiment: Unbiased stereology and phenotyping of BrdU+ cells (hippocampal neurogenesis); assay type: in vivo, rats; parameters: newborn (BrdU+) cell density: scale not given here
Procedure: BrdU (50 mg/kg/day) was administered daily during the second week of fluoxetine or vehicle.
BrdU (50 mg/kg/day) was administered concurrently with fluoxetine or vehicle.
Next changes in neurogenesis associated with these bidirectional changes in behavior and network activity were probed for, to determine if the network dynamics metric depends chiefly on a single biological mechanism or instead retains its validity across fundamentally different mechanisms that may underlie CMS and antidepressant responses. Neurogenesis appears to be strongly linked to antidepressant effects on the novelty-suppressed feeding task, but has not been clearly implicated in depression-related behavioral measures like the FST or in depression induction involving chronic mild stress. […] To directly investigate whether the network and behavioral effects of both CMS and antidepressant treatment could depend in part on a common underlying neurogenesis mechanism, bromodeoxyuridine (BrdU) was administered to label dividing cells during the last week of treatment in the experiment described in connection with FIG. 3, and blinded immunohistological counts from the hippocampus contralateral to that used for VSDI were conducted with unbiased stereology procedures, to determine the total number of newborn cells (FIG. 4A, 4C). For this analysis the hippocampal formation was divided into two components, dorsal and ventral. The ventral hippocampus is thought to be more involved in mood regulation. Thus, the acute slice VSDI experiments were conducted in ventral hippocampus.
as §1

[7] = tested on: dentate gyrus (DG); experiment: VSDI of evoked DG activity in acute hippocampal slices from treated animals; assay type: in vivo, rats; conditions: for evoked DG activity: 2-week dosing
Procedure: as §4, §2
The following algorithms provide an example implementation for use in analyzing the VSDI data collected according to the methods and systems described herein. To begin the analysis, the raw VSDI data were imported into a software application, such as MATLAB (Mathworks, Natick, Mass.). The data was represented as an initial reference frame (F), followed by each imaging data frame, which contained differential fluorescence values (ΔF). For each pixel and frame, the ΔF/F value was calculated. Each temporal frame was then spatially smoothed using a 3×3 pixel digital Gaussian kernel (σ=1):
as §3

[8] = CMS five weeks or control, fluoxetine during final two weeks
[9] = 2-week dosing, 48-hour delay, mean percent time
[10] = NNS protocol, normalized by control mean

Compound: NS(=O)(=O)c1cccc2c1c([N+](=O)[O-])cc1nc(O)c(O)nc12 [NBQX]
- VSDI signal ([1]; NBQX application 10 μM, evoked by electrical stimulation): greatly reduced; also recorded: nearly abolished the signal

Compound: CNCCC(Oc1ccc(C(F)(F)F)cc1)c1ccccc1 (stereo not drawn) [fluoxetine]
- doublecortin (Dcx) staining, number of Dcx+ cells [2]: unaffected; also recorded: did not affect the number of Dcx+ cells
- activity of DG relative to CA1 [3, 8]: significantly increased this statistic in both CMS and control groups
- DG-CA1 relative activity ([3]; irradiated animals): not following irradiation; also recorded: relied similarly on hippocampal neurogenesis
- DG-CA1 relative activity ([3]; sham irradiation): significant increases; also recorded: increased the activity of DG relative to that of CA1
- evoked CA1 activity [4]: reduced activity in CA1
- CA1 VSDI response [4]: significantly decreased response; also recorded: decreased CA1 activity
- CA1 VSDI response ([4]; irradiated animals): unaffected by irradiation
- FST swimming [5, 9]: associated increases
- FST mobility behaviors (swimming and climbing) [5, 8]: associated increases in mobility behaviors
- FST immobility ([5]; CMS five weeks or control, fluoxetine during final two weeks, 48 hour delay): decreased immobility in both control and CMS groups; also recorded: reversing the behavioral effects of CMS
- FST swimming ([5]; NNS protocol, sham irradiation): increases in swimming
- total number of newborn neurons (BrdU+/NeuN+) in the DG ([6]; NNS protocol): specifically increased the total number of newborn neurons; also recorded: selective increase in neurogenesis
- BrdU+ cell density, effect in words ([6]; dorsal hippocampus): no such effects were observed
- newborn (BrdU+) cell density ([6]; dorsal hippocampus, CMS+fluoxetine): 3.41 cells/mm^3
- newborn (BrdU+) cell density ([6]; dorsal hippocampus, fluoxetine without CMS): 3.03 cells/mm^3
- newborn (BrdU+) cell density ([6]; ventral hippocampus, CMS+fluoxetine): 2.38 cells/mm^3
- BrdU+ neuron density (NeuN, Dcx phenotyping) ([6]; ventral hippocampus, CMS/fluoxetine experiment): increased number of new neurons; also recorded: specifically increased
- newborn (BrdU+) cell density ([6]; ventral hippocampus, fluoxetine without CMS): 2.47 cells/mm^3
- BrdU+ cell density, effect in words ([6]; ventral hippocampus, in the presence and absence of CMS): increased number of new cells; also recorded: robustly increased
- total BrdU+ cells per hippocampus ([6]; weeklong fluoxetine 20 mg/kg/day, BrdU concurrently): increased numbers of new cells; also recorded: increased the BrdUi cell density
- evoked DG activity ([7]; normalized by control mean): increased activity in DG
- DG VSDI response ([7]; NNS protocol, irradiated animals): no fluoxetine-induced differences
- DG active network area [7, 10]: modulated similarly to the total activity measure
- DG mean signal amplitude [7, 10]: not modulated
- DG VSDI response ([7]; NNS protocol, sham irradiation): significantly increased response; also recorded: neurogenesis dependent increase of DG activity; also recorded: increased DG activity

Compound: O=C(CCCN1CCC(O)(c2ccc(Cl)cc2)CC1)c1ccc(F)cc1 [haloperidol]
- relative activity between DG and CA1 ([3]; 2-week dosing): absent
- FST climbing [5, 9]: No such effects were observed
- FST swimming [5, 9]: No such effects were observed
- evoked DG activity ([7]; normalized by control mean): increased in antidepressant, but not haloperidol; also recorded: no effect

Compound: CN(C)CCCN1c2ccccc2CCc2ccccc21 [imipramine]
- evoked CA1 activity [4]: reduced activity in CA1
- evoked DG activity ([7]; normalized by control mean): increased activity in DG

Compound: NC(CCCP(=O)(O)O)C(=O)O [D-AP5]
- VSDI signal ([1]; concurrent D-AP5 application 25 μM with NBQX): abolished; also recorded: extinguished the signal
